Patent publication US11242337B2, “Compounds useful for treating gastrointestinal tract disorders” (Ardelyx, Inc., priority 2017, dated 2022)
Where two headings read alike, the source gives them in different places.

Experiments:
[1] = test system: human ileum monolayer culture; test: Sustained inhibition of apical acid secretion in human organoid monolayer cell cultures (ileum); assay type: cell-based; conditions: Homo sapiens, 48 h; 1 μM apical, dosed day 6, apical media pH day 8, vs DMSO
Description: Basal media (BM) consisted of advanced DMEM/F12 containing 10 mM HEPES Invitrogen, 15630-080), 1:100 Glutamax (Invitrogen, 35050-061), and 1:100 penicillin/streptomycin (Invitrogen, 15140-122). Supplemented basal media (SBM) contained 1:100 N2 (Invitrogen, 17502-048), 1:50 B27 (Invitrogen, 12587-010), 1 mM N-acetylcysteine (Sigma, A9165), and 10 nM [Leu15]-gastrin I (Sigma, G9145). Growth factors used included 50 ng per mL mouse EGF (Peprotech, 315-09), 100 ng per mL mouse noggin (Peprotech, 250-38), 500 ng per mL human R-spondin 1 (R&D, 4645-RS), 100 ng per mL mouse Wnt-3a (R&D, 1324-WN), 20 μM. Y-27632 (Tocris, 1254), 10 mM nicotinamide (Sigma, N0636), 500 nM A83-01 (Tocris, 2939), 10 μM SB202190 (Tocris, 1264). Transwells were 0.4 μm pore polyester membrane 24-well Transwell inserts (Corning). Cultures were incubated at 37° C. in 5% CO2.
Human ileum organoids were cultured in WENRNAS (Wnt, EGF, noggin, R-spondin1, Nicotinamide, A83-01, SB202190) and typically grown for 7-12 days before being used to plate monolayer cultures. On day 0, organoid cultures embedded in Matrigel were treated with TrypLE Express to break organoids into small pieces and/or single cells. The cells were resuspended to 0.5×10^6 cells/mL in SBM containing WENRAY (Wnt, EGF, noggin, R-spondin1, A83-01, Y-27632). Following this step, 200 μL of cell suspension was plated into the apical side of a 24-well Transwell (100,000 cells/well) and 600 μL of SBM with WENRAY was added to the basolateral side. Ileum cells were differentiated with ENRA (EGF, noggin, R-spondin 1, A83-01) on day 3. The color of apical compartment turns from pink or orange to yellow due to the increase in NHE3 expression after differentiation.
Each human ileum monolayer culture well was washed twice with fresh SBM on the apical side on day 6 before compound dosing. All compound stocks were 10 mM dissolved in DMSO. Each compound stock was individually mixed with fresh SBM to reach final compound concentration 1 μM and dosed only on the apical side of the monolayer (total volume 200 μl). DMSO at the equivalent concentration was used as the vehicle control. Duplicate wells were dosed for each compound. On day 8, apical media pH was measured by pH electrode, to determine the ability of example compounds to produce sustained inhibition of NHE3 activity in a human monolayer culture system by preventing proton secretion into the apical compartment.

[2] = test system: absorption of sodium from the intestinal lumen; test: Inhibition of intestinal sodium absorption in mice; assay type: in vivo; conditions: CD-1 mice, 15 mg/kg oral gavage twice daily; for Fecal fluid content (Δ from vehicle): day 3, change from vehicle group mean; for response vs control in vivo at 15 mg/kg: Mus musculus, 72 h, day 3, normalized to dietary sodium intake
In short: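 Male ~8-week CD-1 mice on chow with added 0.4% inorganic phosphorous, in metabolic cages after 3-day acclimation and 24-hr baseline collection. Urine sodium by ion chromatography, dried fecal sodium by MP-AES; day-3 24-hour excretion normalized to dietary sodium intake and expressed as % of vehicle mean; diarrhea and fecal fluid also recorded.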

[3] = read-out: Fecal Na Excretion (% of vehicle)
[4] = read-out: Urinary Na Excretion (% of vehicle)

Row | Compound | inhibition at 1 µM [1] [%] | Fecal fluid content (Δ from vehicle) [2] | response vs control in vivo at 15 mg/kg [2, 3] [%] | response vs control in vivo at 15 mg/kg [2, 4] [%]
1 | CN(C)[C@H]1Cc2c(Cl)cc(Cl)cc2[C@@H]1Oc1ccc(S(=O)(=O)NCCOCCOCCNC(=O)NCCCCNC(=O)NCCOCCOCCNS(=O)(=O)c2ccc(O[C@H]3c4cc(Cl)cc(Cl)c4C[C@@H]3N(C)C)c(F)c2)cc1F [Example 23, 3-[2-(2-[2-[(4-[[(1S,2S)-4,6-Dichloro-2-(dimethylamino)-2,3-dihydro-1H-inden-1-yl]oxy]-3-fluorobenzene)sulfonamido]ethoxy]ethoxy)ethyl]-1-[4-([[2-(2-[2-[(4-[[(1S,2S)-4,6-dichloro-2-(dimethylamino)-2,3-dihydro-1H-inden-1-yl]oxy]-3-fluorobenzene)sulfonamido]ethoxy]ethoxy)ethyl]carbamoyl]amino)butyl]urea; bis(trifluoroacetic acid)] | 50 to 70 | B (5-10) | 150 to 200 | 50 to 70
2 | Cc1cc(Cl)cc2c1C[C@H](N(C)C)[C@H]2Oc1ccc(S(=O)(=O)NCCOCCOCCNC(=O)NCCCCNC(=O)NCCOCCOCCNS(=O)(=O)c2ccc(O[C@H]3c4cc(Cl)cc(C)c4C[C@@H]3N(C)C)c(F)c2)cc1F [Example 24, 3-[2-(2-[2-[(4-[[(1S,2S)-6-Chloro-2-(dimethylamino)-4-methyl-2,3-dihydro-1H-inden-1-yl]oxy]-3-fluorobenzene)sulfonamido]ethoxy]ethoxy)ethyl]-1-[4-([[2-(2-[2-[(4-[[(1S,2S)-6-chloro-2-(dimethylamino)-4-methyl-2,3-dihydro-1H-inden-1-yl]oxy]-3-fluorobenzene)sulfonamido]ethoxy]ethoxy)ethyl]carbamoyl]amino)butyl]urea] | < 50 | A (<5) | > 200 | 50 to 70
3 | Cc1cc(S(=O)(=O)NCCOCCOCCNC(=O)NCCCCNC(=O)NCCOCCOCCNS(=O)(=O)c2ccc(O[C@H]3c4cc(Cl)cc(Cl)c4C[C@@H]3N3CCC[C@@H](N(C)C)C3)c(C)c2)ccc1O[C@H]1c2cc(Cl)cc(Cl)c2C[C@@H]1N1CCC[C@@H](N(C)C)C1 [Example 26, 3-[2-(2-[2-[(4-[[(1S,2S)-4,6-Dichloro-2-[(3R)-3-(dimethylamino)piperidin-1-yl]-2,3-dihydro-1H-inden-1-yl]oxy]-3-methylbenzene)sulfonamido]ethoxy]ethoxy)ethyl]-1-[4-([[2-(2-[2-[4-[[(1S,2S)-4,6-dichloro-2-[(3R)-3-(dimethylamino)piperidin-1-yl]-2,3-dihydro-1H-inden-1-yl]oxy]-3-methylbenzenesulfonamido]ethoxy]ethoxy)ethyl]carbamoyl]amino)butyl]urea; bis(trifluoroacetic acid)] | 50 to 70 | B (5-10) | 150 to 200 | 50 to 70
4 | Cc1cc(Cl)cc2c1C[C@H](N1CCC[C@@H](N(C)C)C1)[C@H]2Oc1ccc(S(=O)(=O)NCCOCCOCCNC(=O)NCCCCNC(=O)NCCOCCOCCNS(=O)(=O)c2ccc(O[C@H]3c4cc(Cl)cc(C)c4C[C@@H]3N3CCC[C@@H](N(C)C)C3)cc2)cc1 [Example 28, 3-[2-(2-[2-[(4-[[(1S,2S)-6-Chloro-2-[(3R)-3-(dimethylamino)piperidin-1-yl]-4-methyl-2,3-dihydro-1H-inden-1-yl]oxy]benzene)sulfonamido]ethoxy]ethoxy)ethyl]-1-[4-([[2-(2-[2-[(4-[[(1S,2S)-6-chloro-2-[(3R)-3-(dimethylamino)piperidin-1-yl]-4-methyl-2,3-dihydro-1H-inden-1-yl]oxy]benzene)sulfonamido]ethoxy]ethoxy)ethyl]carbamoyl]amino)butyl]urea; bis(trifluoroacetic acid)] | 50 to 70 | B (5-10) | 150 to 200 | > 70
5 | Cc1cc(S(=O)(=O)NCCOCCOCCNC(=O)NCCCCNC(=O)NCCOCCOCCNS(=O)(=O)c2ccc(O[C@H]3c4cc(Cl)cc(C)c4C[C@@H]3N3CCC[C@@H](N(C)C)C3)c(C)c2)ccc1O[C@H]1c2cc(Cl)cc(C)c2C[C@@H]1N1CCC[C@@H](N(C)C)C1 [Example 29] | > 70 | A (<5) | 150 to 200 | 50 to 70
6 | O=C(NCCCCNC(=O)NCCOCCOCCNS(=O)(=O)c1ccc(O[C@H]2c3cc(Cl)cc(Cl)c3C[C@@H]2N2CCNCC2)cc1)NCCOCCOCCNS(=O)(=O)c1ccc(O[C@H]2c3cc(Cl)cc(Cl)c3C[C@@H]2N2CCNCC2)cc1 [Example 31, 3-[2-(2-[2-[(4-[[(1S,2S)-4,6-Dichloro-2-(piperazin-1-yl)-2,3-dihydro-1H-inden-1-yl]oxy]benzene)sulfonamido]ethoxy]ethoxy)ethyl]-1-[4-([[2-(2-[2-[(4-[[(1S,2S)-4,6-dichloro-2-(piperazin-1-yl)-2,3-dihydro-1H-inden-1-yl]oxy]benzene)sulfonamido]ethoxy]ethoxy)ethyl]carbamoyl]amino)butyl]urea; bis(trifluoroacetic acid)] | > 70 | B (5-10) | > 200 | 50 to 70
7 | Cc1cc(S(=O)(=O)NCCOCCOCCNC(=O)NCCCCNC(=O)NCCOCCOCCNS(=O)(=O)c2ccc(O[C@H]3c4cc(Cl)cc(Cl)c4C[C@@H]3N3CCNCC3)c(C)c2)ccc1O[C@H]1c2cc(Cl)cc(Cl)c2C[C@@H]1N1CCNCC1 [Example 32, 3-[2-(2-[2-[(4-[[(1S,2S)-4,6-Dichloro-2-(piperazin-1-yl)-2,3-dihydro-1H-inden-1-yl]oxy]-3-methylbenzene)sulfonamido]ethoxy]ethoxy)ethyl]-1-[4-([[2-(2-[2-[(4-[[(1S,2S)-4,6-dichloro-2-(piperazin-1-yl)-2,3-dihydro-1H-inden-1-yl]oxy]-3-methylbenzene)sulfonamido]ethoxy]ethoxy)ethyl]carbamoyl]amino)butyl]urea; bis(trifluoroacetic acid)] | > 70 | A (<5) | 150 to 200 | 50 to 70
8 | O=C(NCCCCNC(=O)NCCOCCOCCNS(=O)(=O)c1ccc(O[C@H]2c3cc(Cl)cc(Cl)c3C[C@@H]2N2CCNCC2)c(F)c1)NCCOCCOCCNS(=O)(=O)c1ccc(O[C@H]2c3cc(Cl)cc(Cl)c3C[C@@H]2N2CCNCC2)c(F)c1 [Example 33, 3-[2-(2-[2-[(4-[[(1S,2S)-4,6-Dichloro-2-(piperazin-1-yl)-2,3-dihydro-1H-inden-1-yl]oxy]-3-fluorobenzene)sulfonamido]ethoxy]ethoxy)ethyl]-1-[4-[[(2-(2-[2-[(4-[[(1S,2S)-4,6-dichloro-2-(piperazin-1-yl)-2,3-dihydro-1H-inden-1-y]oxy]-3-fluorobenzene)sulfonamido]ethoxy]ethoxy)ethyl]carbamoyl]amino)butyl]urea; bis(trifluoroacetic acid)] | > 70 | C (>10) | > 200 | < 50
9 | Cc1cc(Cl)cc2c1C[C@H](N1CCNCC1)[C@H]2Oc1ccc(S(=O)(=O)NCCOCCOCCNC(=O)NCCCCNC(=O)NCCOCCOCCNS(=O)(=O)c2ccc(O[C@H]3c4cc(Cl)cc(C)c4C[C@@H]3N3CCNCC3)cc2)cc1 [Example 34, 3-[2-(2-[2-[(4-[[(1S,2S)-6-Chloro-4-methyl-2-(piperazin-1-yl)-2,3-dihydro-1H-inden-1-yl]oxy]benzene)sulfonamido]ethoxy]ethoxy)ethyl]-1-[4-([[2-(2-[2-[(4-[[(1S,2S)-6-chloro-4-methyl-2-(piperazin-1-yl)-2,3-dihydro-1H-inden-1-yl]oxy]benzene)sulfonamido]ethoxy]ethyl)ethyl]carbamoyl]amino)butyl]urea; bis(trifluoroacetic acid)] | 50 to 70 | B (5-10) | 150 to 200 | 50 to 70
